Here are results for two compounds from US8575173B2, “Piperazinyl 3-aminopyrrolidine derivatives as a CCR2 antagonists” (Yang Ji Chemical Co., Ltd., priority 2009, dated 2013).

One series concerns the target T1, CCR2b (Homo sapiens, UniProt P41597).
T1 construct: expressed in transfected cells; host or cells: HEK293
T1 sequence (P41597 1-360 isoform P41597-2): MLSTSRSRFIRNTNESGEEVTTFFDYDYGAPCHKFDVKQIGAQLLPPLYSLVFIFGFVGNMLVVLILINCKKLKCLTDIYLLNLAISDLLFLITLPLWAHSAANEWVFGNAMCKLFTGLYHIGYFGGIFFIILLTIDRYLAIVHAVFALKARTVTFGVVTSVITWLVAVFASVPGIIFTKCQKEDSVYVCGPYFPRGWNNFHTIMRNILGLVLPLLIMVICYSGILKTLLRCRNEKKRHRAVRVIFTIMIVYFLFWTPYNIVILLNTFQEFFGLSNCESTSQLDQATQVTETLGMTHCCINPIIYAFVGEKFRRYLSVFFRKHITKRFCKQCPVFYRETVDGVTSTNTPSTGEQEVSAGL
The series is described as follows: CCR2 inhibitory effect on Ca2+ flux (HEK293/CCR2b, MCP-1 stimulated). The settings on record: HEK293/CCR2b cells, MCP-1 added; read-out: Blocking Ca^2+ flux, IC50. It counts as cell-based. As for the experimental part: After seeding CCR2b transformed cell (HEK293/CCR2b) on black-clear bottom plate coated with lysine, it was adapted for 24 hours and exchanged into serum free media (DMEM) and allowed to cultivate overnight. Next day After the compound is treated with Flour-4 (calcium dye, Molecular probe) and cultivated for 50 min on incubator, it is washed calcium-free buffer solution and pretreated for 10-15 min. It is added with MCP-1 and its signal is measured with FlexStation^II (Molecular device).

A further series has as its target CYP3A4 (Homo sapiens, UniProt P08684). Description: CYP450 inhibitory activity, CYP3A4. It is filed as in vitro ADME. Conditions: CYP3A4 enzyme membrane, 10 μM compound, read-out: Inhibition of CYP450, % @10 μM: 3A4. How it is done: (§1) It is analyzed inhibitory activity assay on 5 types (CYP3A4, 2C9, 2C19, 2D6, 1A2) of 11 types CYP450, drug metabolic enzyme. Luciferin detection reagent is dissolved in buffer solution and each CYP enzyme membrane is prepared.
(§2) 4-fold concentration of the compound in 6.25 μl is prepared, and added to 6.25 μl mixture containing enzyme and proper different substrate depending on enzyme types, and kept for 10 min. After reacting with 12.5 μl NADPH regeneration reagent of CYP enzyme for 30 min, adding 25 μl luciferin detection reagent and keeping for 20 min, luminescence is measured at Fusion α.

A further series concerns the target CYP2C9 (Homo sapiens, UniProt P11712). Description: CYP450 inhibitory activity, CYP2C9. It counts as in vitro ADME. Conditions: CYP2C9 enzyme membrane, 10 μM compound, read-out: Inhibition of CYP450, % @10 μM: 2C9. How it is done:
as §1, §2

Another series addresses CYP2C19 (Homo sapiens, UniProt P33261). Description: CYP450 inhibitory activity, CYP2C19. The settings on record: CYP2C19 enzyme membrane, 10 μM compound, read-out: Inhibition of CYP450, % @10 μM: 2C19. It is filed as in vitro ADME. As for the experimental part: as §1, §2
For another series, the target named is CYP2D6 (Homo sapiens, UniProt P10635). The series is described as follows: CYP450 inhibitory activity, CYP2D6. It counts as in vitro ADME. The settings on record: CYP2D6 enzyme membrane, 10 μM compound, read-out: Inhibition of CYP450, % @10 μM: 2D6. As for the experimental part: Luciferin detection reagent is dissolved in buffer solution and each CYP enzyme membrane is prepared. […] After reacting with 12.5 μl NADPH regeneration reagent of CYP enzyme for 30 min, adding 25 μl luciferin detection reagent and keeping for 20 min, luminescence is measured at Fusion α.

The target in the next series is T2, CYP1A2 (Homo sapiens, UniProt P05177).
T2 sequence (P05177 1-516): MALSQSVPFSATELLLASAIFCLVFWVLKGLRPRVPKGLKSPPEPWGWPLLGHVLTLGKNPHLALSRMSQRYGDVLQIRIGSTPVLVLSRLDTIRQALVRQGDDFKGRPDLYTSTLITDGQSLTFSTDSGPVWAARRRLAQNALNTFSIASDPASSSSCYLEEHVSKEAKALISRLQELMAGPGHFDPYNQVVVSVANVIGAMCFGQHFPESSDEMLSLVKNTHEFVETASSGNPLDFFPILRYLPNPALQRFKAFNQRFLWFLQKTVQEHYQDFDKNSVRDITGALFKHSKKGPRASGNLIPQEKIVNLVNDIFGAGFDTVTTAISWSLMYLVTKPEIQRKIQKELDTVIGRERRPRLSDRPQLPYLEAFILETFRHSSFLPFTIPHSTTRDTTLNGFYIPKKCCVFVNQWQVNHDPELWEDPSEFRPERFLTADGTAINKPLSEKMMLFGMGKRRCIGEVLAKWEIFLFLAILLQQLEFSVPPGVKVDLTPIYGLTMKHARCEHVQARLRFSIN
The series is described as follows: CYP450 inhibitory activity, CYP1A2. It is filed as in vitro ADME. Conditions: CYP1A2 enzyme membrane, 10 μM compound, read-out: Inhibition of CYP450, % @10 μM: 1A2. How it is done: as §1, §2

For a further series, the system named is HepG2. Description: Cytotoxicity (cell viability, MTS assay), HepG2. It is filed as cell-based. The settings on record: 10 μM compound, vs control group. The text has this:
(§3) The MTS (3-(4,5-dimethylthiazol-2-yl)-5-(3-carboxymethoxyphenyl)-2-(4-sulfophenyl)-2H-tetrazolium, inner salt, Promega, U.S.A) assay to THP-1 cell is used to measure cytotoxicity of test compound. The MTS assay is applicable to sensitively measure viability, multiplication and activity of cell and is a method using transformation the yellow MTS into insoluble formazan by dehydrogenase of mitochondria during metabolism of viable cell. The THP-1 cell is proliferated on RPMI-1640 supplemented with 10% fetal bovine serum under 37° C., at 5% CO2 incubator. Cell density is maintained around 0.5×10^6 cells/ml. THP-1 cell is poured into 96-well plate in 1×10^6 cell/ml and treating with 1, 10 μM concentration of test compound, after 24 hours 20 μl of 317 μg/ml MTS is treated to 96-well plate. Cell viability as the he absorbance of crystalline formazan of test group to control group observed at 490 nm using ELISA reader after 1 hour is calculated by following mathematical formula 2. Cell viability(%)=(Absorbance of experimental wells)/(Absorbance of control wells))×100 [Mathematical Formula 2]
(§4) The cell cytotoxicity test is performed to many cell lines, for example HepG2, NIH3T3, CHO-K1, HEK293, in addition to THP-1 illustrated above, and test procedures related to these are same or similar as described method above.

A further series has as its system NIH 3T3. Description: Cytotoxicity (cell viability, MTS assay), NIH 3T3. It is filed as cell-based. Conditions: 10 μM compound, vs control group.
Excerpt: as §3, §4

The subject of another series is CHO-K1. The series is described as follows: Cytotoxicity (cell viability, MTS assay), CHO-K1. It is filed as cell-based. Conditions: 10 μM compound, vs control group.
Excerpt: as §3, §4

The subject of a further series is HEK 293. The series is described as follows: Cytotoxicity (cell viability, MTS assay), HEK 293. It counts as cell-based. Conditions: 10 μM compound, vs control group.
Excerpt: as §3, §4

Series [1] concerns the target T3, CCR2 (Homo sapiens, UniProt P41597). Description: Inhibitory effect on MCP-1 induced chemotaxis of THP-1 cells. It counts as cell-based. More on the design: endogenous in cells; host or cells: THP-1. Conditions: hMCP-1 10 ng/ml, 2 hours, read-out: Inhibition of Chemotaxis, IC50. As for the experimental part:
Antagonistic effect on the compound on CCR2 activity was measured by leukocyte chemotaxis assay using a proper cell line.
The used cell line is THP-1 and it is proliferated RPMI-1640 supplemented with 10% fetal calf serum under 37° C. at 5% CO2 incubator. Cell density was maintained near about 0.5×10^6 cells/ml.
Cell is allowed to have chemotaxis under 37° C., 5% CO2 incubator for 2 hours. After incubating for 2 hours, cells which is not moved from the upper side of filter are removed by wiping the filter with cotton swab.
The cells moved to lower chamber was measured using fluorescent plate reader under λexcite=480 nm, λexit=520 nm.
The chemotaxis may be described as chemotaxis coefficient, ratio between mean value of cells moved under existence of MCP-1 and mean value of cells moved under absence of chemokine.

Series [2] has as its target T3, CCR2. The series is described as follows: CCR2 receptor protein binding assay ([125I]-MCP1). More on the design: purchased Perkinelmer, USA; host or cells: CHO cell membranes. Conditions: [125I]-MCP1 binding, CCR2 membrane expressed in CHO cell; read-out: Affinity to CCR2 receptor, IC50. How it is done:
The buffer used for receptor binding assay is 50 mM Hepes (pH 7.4) containing 5 mM MgCl2, 1 mM CaCl2 and 0.5% BSA. The resultant reaction mixture in final volume 0.25 ml is prepared by adding CCR2 membrane (10 μg/well), [^125I]-MCP1 to test drug in 96-well plate on [^125I]-MCP1 binding assay and is cultivated on 27° C. for 60 min.
After incubation, reaction is terminated with fast filtering through Wallac filtermat A GF/C glass fiber filter (Wallac, Finland) pre-wetted in 0.5% PEI using Inotech harvester (Inotech) and is washed in cold 50 mM Tris-HCl (pH 7.4) buffer solution. After filter is covered with MeltiLex, it is sealed in sample bag, dried on oven, and counted using MicroBeta Plus (Wallac).
[…] is used in non-specific binding measurement.

T3 sequence (P41597 whole entry): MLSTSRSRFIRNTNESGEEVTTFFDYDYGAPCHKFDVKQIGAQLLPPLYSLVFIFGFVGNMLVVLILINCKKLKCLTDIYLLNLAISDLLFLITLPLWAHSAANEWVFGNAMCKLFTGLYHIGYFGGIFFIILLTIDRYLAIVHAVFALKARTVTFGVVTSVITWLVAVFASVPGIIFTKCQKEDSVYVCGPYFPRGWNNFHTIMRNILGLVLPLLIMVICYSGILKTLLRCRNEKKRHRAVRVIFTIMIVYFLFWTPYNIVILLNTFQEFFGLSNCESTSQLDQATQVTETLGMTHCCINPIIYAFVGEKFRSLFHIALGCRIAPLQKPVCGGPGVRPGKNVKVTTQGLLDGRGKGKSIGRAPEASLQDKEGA
Chain of CYP2C9 (P11712 whole entry): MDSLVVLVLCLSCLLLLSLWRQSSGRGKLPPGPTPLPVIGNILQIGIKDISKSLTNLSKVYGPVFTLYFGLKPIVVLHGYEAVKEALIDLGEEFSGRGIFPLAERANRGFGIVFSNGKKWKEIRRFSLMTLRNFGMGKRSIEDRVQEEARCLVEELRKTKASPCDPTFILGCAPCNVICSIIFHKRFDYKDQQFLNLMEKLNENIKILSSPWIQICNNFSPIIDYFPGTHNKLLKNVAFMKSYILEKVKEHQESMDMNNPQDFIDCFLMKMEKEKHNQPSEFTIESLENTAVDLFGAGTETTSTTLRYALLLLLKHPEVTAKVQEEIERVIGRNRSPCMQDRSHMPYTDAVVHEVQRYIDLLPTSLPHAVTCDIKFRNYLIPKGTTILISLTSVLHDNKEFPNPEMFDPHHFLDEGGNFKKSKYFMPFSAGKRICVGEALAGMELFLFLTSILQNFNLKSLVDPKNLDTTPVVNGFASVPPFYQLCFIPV
Chain of CYP2C19 (P33261 whole entry, the tested form may be a part): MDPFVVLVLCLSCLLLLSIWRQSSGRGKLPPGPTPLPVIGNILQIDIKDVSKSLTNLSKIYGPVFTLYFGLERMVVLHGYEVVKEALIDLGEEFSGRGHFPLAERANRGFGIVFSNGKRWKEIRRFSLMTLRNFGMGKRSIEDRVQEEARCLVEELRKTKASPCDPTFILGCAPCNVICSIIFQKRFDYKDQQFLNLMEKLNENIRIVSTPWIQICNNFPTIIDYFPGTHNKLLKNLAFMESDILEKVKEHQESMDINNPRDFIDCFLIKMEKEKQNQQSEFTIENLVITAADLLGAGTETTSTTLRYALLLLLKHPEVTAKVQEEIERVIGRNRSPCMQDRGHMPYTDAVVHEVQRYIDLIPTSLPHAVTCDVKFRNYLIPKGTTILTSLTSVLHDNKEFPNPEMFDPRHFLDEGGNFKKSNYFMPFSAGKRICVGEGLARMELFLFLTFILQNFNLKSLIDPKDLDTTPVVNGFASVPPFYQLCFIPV
Chain of CYP2D6 (P10635 whole entry, the tested form may be a part): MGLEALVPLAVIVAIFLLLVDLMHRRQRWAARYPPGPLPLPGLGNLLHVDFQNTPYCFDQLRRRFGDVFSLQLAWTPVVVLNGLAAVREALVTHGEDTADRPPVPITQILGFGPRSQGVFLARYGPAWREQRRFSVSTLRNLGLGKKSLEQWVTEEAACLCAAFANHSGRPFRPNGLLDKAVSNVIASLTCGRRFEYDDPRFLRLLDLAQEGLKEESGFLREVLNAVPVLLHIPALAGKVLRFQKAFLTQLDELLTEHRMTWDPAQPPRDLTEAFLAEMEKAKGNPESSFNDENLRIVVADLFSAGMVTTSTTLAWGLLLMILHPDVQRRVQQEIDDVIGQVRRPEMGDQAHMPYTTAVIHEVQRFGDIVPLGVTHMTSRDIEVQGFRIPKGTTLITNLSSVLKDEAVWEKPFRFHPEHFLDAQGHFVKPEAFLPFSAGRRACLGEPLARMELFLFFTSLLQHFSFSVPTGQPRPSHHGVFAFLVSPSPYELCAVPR
Chain of CYP3A4 (P08684 whole entry, the tested form may be a part): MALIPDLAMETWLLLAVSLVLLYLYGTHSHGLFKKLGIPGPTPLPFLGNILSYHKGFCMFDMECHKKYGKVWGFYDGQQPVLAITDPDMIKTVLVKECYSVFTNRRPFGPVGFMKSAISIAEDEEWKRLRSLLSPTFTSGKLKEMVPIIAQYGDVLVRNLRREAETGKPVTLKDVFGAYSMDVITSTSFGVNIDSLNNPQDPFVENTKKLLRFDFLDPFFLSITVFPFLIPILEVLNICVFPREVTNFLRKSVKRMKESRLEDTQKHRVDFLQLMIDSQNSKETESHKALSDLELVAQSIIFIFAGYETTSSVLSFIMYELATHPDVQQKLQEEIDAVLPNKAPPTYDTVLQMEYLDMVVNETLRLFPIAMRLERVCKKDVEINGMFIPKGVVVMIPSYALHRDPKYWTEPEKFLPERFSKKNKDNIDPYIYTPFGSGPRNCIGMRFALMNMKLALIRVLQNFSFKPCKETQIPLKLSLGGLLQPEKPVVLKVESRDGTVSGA

On to `O=C(CNC(=O)c1cccc(C(F)(F)F)c1)N[C@@H]1CCN(CCN2CCN(C(=O)c3ccccc3)CC2)C1` [Example 6, N-{[1-(2-(4-benzoylpiperazine-1-yl)ethyl)-pyrrolidine-(3R)-yl-carbamoyl]-methyl}-3-trifluoromethylbenzamide], for which the IC50 at CCR2b was determined as 0.018 µM; on CCR2 [1], 0.009 µM; on CCR2 [2], 0.99 µM. Moreover, the inhibition at 30 min, 10 µM on CYP3A4 stood at 6.5%; at CYP2C9, 23.6%; on CYP2C19, 14.2%; at CYP2D6, 8.5%; at CYP1A2, 23.5%. Also, the “Cell viability, % @10 μM: HepG2” value in the series with HepG2 was found to be 73.5%. The “Cell viability, % @10 μM: NIH 3T3” value in the series on NIH 3T3 amounted to 70.6%. Moreover, the “Cell viability, % @10 μM: CHO-K1” value with CHO-K1 was determined as 84.6%. In addition, the “Cell viability, % @10 μM: HEK 293” value in the series on HEK 293 was 59.3%.
`Cc1ccccc1C(=O)N1CCN(CCN2CC[C@@H](NC(=O)CNC(=O)c3cccc(C(F)(F)F)c3)C2)CC1` [Example 7, N-{[1-(2-(4-(2-methylbenzoyl)piperazine-1-yl)ethyl)-pyrrolidine-(3R)-yl-carbamoyl]-methyl}-3-trifluoromethylbenzamide]: the values for the IC50 on CCR2b, at CCR2 [1] and on CCR2 [2] were 0.12 µM, 0.07 µM and 4.44 µM, respectively. Also, the inhibition at 30 min, 10 µM at CYP3A4 was 28.2%; on CYP2C9 it was 19%; on CYP2C19 it was 9.5%; on CYP2D6, -3.5%; on CYP1A2, 6.6%. For the same compound, in the series on HepG2, the “Cell viability, % @10 μM: HepG2” value is reported as 105.8%. Moreover, in the series on NIH 3T3, the “Cell viability, % @10 μM: NIH 3T3” value is reported as 73.0%. Besides, the “Cell viability, % @10 μM: CHO-K1” value in the series with CHO-K1 is listed as 80.1%. Further, in the series with HEK 293, the “Cell viability, % @10 μM: HEK 293” value was 66.9%.
